# Laboratory results reported in patent publication US20240207262A1, “PROPHYLACTIC AND/OR THERAPEUTIC AGENT FOR AMYOTROPHIC LATERAL SCLEROSIS” (NATIONAL UNIVERSITY CORPORATION TOKAI NATIONAL HIGHER …, priority 2021, published 2024).
# What was measured:
# mouse spinal cords = assay: Mouse spinal cord RNA sequencing (GO and IPA analysis) in SOD1^G93A transgenic mice; format: in vivo; conditions: 16 weeks of age, drug diet vs control diet
# Protocol: The experiment of PF-04457845 administration to SOD1^G93A transgenic mice was continued, and RNA sequencing of the spinal cord was performed on mice treated with a drug-infused diet and mice treated with a control diet, both at 16 weeks of age.
# GO analysis: This is a method for analyzing a group of genes that have many variable genes when genes are grouped according to their functionality among mRNAs whose RNA sequences show changes.
# IPA analysis: An analysis to explore the association of known pathways, upstream factors, and toxicity with disease.
# [1] = tested on: SOD1^G93A transgenic mice; assay: Survival analysis in SOD1^G93A transgenic mice; format: in vivo, mouse; conditions: 1 mg/kg/day mixed in diet from 8 weeks of age, vs control diet; log rank test p<0.001
# Protocol: (§1) PF-04457845 was mixed in the diet, and administration started at 8 weeks of age. […] Drug efficacy analysis was conducted using body weight, motion analysis based on the Rotarod test (measured once a week), and survival analysis.
# An ALS model animal with mutation of SOD1 gene, which is responsible for familial ALS, was used to conduct efficacy analysis of PF-04457845. The control was one that was free of the drug.
# (§2) • Week 0: • Week 6: 1. Body weight, 2. Rotarod test (the method for measuring the motor function of mice) • Week 8: The drug (PF-04457845) was mixed with the diet, and administration started. • Week 9-10: Onset • Around week 17-20: Survival analysis
# (§3) PF-04457845 was administered at a dose of 1 mg/kg/day. The dosage was determined based on a previous report on administration to rats (Ahn K et al. Journal of Pharmacology and Experimental Therapeutics 2011: 338; 114-124).
# In accordance with the method shown in FIG. 6, survival analysis was performed. • ♂ (male), PF-04457845: n=8, Control: […] • ♀ (female), PF-04457845: n=8, Control: n=13 • Log rank test p<0.001
# microglia = assay: Spinal cord Iba-1 staining in SOD1^G93A transgenic mice; format: in vivo; conditions: 16W treated vs 16W control mouse spinal cord
# Protocol: as §1
# (§4) A 16W PF-04457845-administered mouse spinal cord was compared with a 16W control-administered mouse spinal cord.
# [2] = tested on: NSC34 cells (mouse motor neuron) expressing TDP-43^A315T; assay: WST cell viability assay, NSC34 cells transfected with TDP-43^A315T; format: cell-based; conditions: for Viability (TDP-43^A315T): ratio of maximum viability to viability at 0 μM
# Protocol: (§5) A pathological cell model was created by transient forced expression of the following genes in NSC34 cells (mouse motor neuron) by transfecting the cells with a plasmid using Lipofectamine 2000 (R) (Thermo Fisher Scientific), and changes in cell viability due to drug administration were analyzed by WST assay.
# (§6) • Day 0: NSC 34 cell culture (DMEM FBS 10%) • Day 1: Transfection (Cells were transfected with a plasmid having the following genes inserted by using Lipofectamine 2000 (R) (Thermo Fisher Scientific).) • 1. Mock (unmutated cells: control plasmid-transfected cells) • 2. TDP-43^A315T: TDP-43 mutation model (reflecting human pathological conditions) • 3. SOD1^G93A: mutation SOD1 familial model (mutation common to humans and animal models) • Cell culture is continued afterward in FBS-free DMEM. • Day 4: Drug administration • Day 5: WST assay (Cell viability is measured to determine the effect of drug administration.)
# (§7) Two types of cellular models were used to bridge the gap between SOD1 transgenic mouse models and sporadic ALS human pathological conditions (TDP-43 cell model).
# (§8) The viability indicates the ratio of maximum viability to viability at 0 μM. The […] PF-04457845 yielded a viability about 1.3 times the viability with the existing drug riluzole (control) at a concentration one-tenth the concentration of riluzole.
# NSC34 cells = assay: WST cell viability assay, NSC34 ALS model cells (model not given); format: cell-based, mouse
# Protocol: as §5, §6
# The experimental conditions are those described in FIG. 3.
# astrocytes = assay: Spinal cord GFAP staining in SOD1^G93A transgenic mice; format: in vivo; conditions: 16W treated vs 16W control mouse spinal cord
# Protocol: as §1, §4
# [3] = tested on: NSC34 cells (mouse motor neuron) expressing SOD1^G93A; assay: WST cell viability assay, NSC34 cells transfected with SOD1^G93A; format: cell-based; conditions: for Viability (SOD1^G93A): ratio of maximum viability to viability at 0 μM
# Protocol: as §5, §6, §7, §8
# [4] = tested on: SOD1^G93A transgenic mice; assay: Rotarod test (motion analysis) in SOD1^G93A transgenic mice; format: in vivo, mouse; conditions: 1 mg/kg/day in diet, vs control diet; 2-way ANOVA, p=0.002
# Protocol: as §1, §2, §3
# [5] = Body weight of SOD1^G93A transgenic mice; format: in vivo, mouse; conditions: 1 mg/kg/day in diet, vs control diet; 2-way ANOVA; trend toward limiting weight loss
# Protocol: as §1, §2, §3
# [6] = tested on: mouse spinal cord motor neurons; assay: Spinal cord ChAT staining (motor neurons) in SOD1^G93A transgenic mice; format: in vivo
# Protocol: as §1
# In accordance with the method shown in FIG. 6, the drug was administered, and the pathological specimens of mouse spinal cords in an advanced stage of the disease were subjected to ChAT staining (motor neuron).
# 19W and 22W PF-04457845-administered mouse spinal cords were compared with a 19W control-administered mouse spinal cord.
# The photographs are of a 22W PF-04457845-administered mouse spinal cord and a 19W control-administered mouse spinal cord.
# as §4
# The photographs are of the 16W PF-04457845-administered mouse spinal cord and 16W control-administered mouse spinal cord.
Structure (SMILES),Expression of CD36 in mouse spinal cords (mouse spinal cords),Expression of Pla2g3 in mouse spinal cords (mouse spinal cords),Expression of lipoprotein lipase (Lpl) in mouse spinal cords (mouse spinal cords),IL-13 signaling pathway (IPA analysis) (mouse spinal cords),Survival period [1],Iba-1 staining: proliferation of microglia (microglia),"Improving cell viability, TDP-43 mutation (A315T) cell model ([2]; 10 nM)",Viability (TDP-43^A315T) ([2]; concentration 10 nM),Viability relative to the viability with riluzole (control) (NSC34 cells; at a concentration one-tenth the concentration of riluzole),"Improving effect on cell viability compared with other FAAH inhibitors (NSC34 cells; vs PF-3845, arachidonoyl serotonin, FAAH inhibitor II, conditions of FIG. 3)",GFAP staining: proliferation of astrocytes (astrocytes),"Improving cell viability, SOD1 (G93A) mutation cell model ([3]; 10 nM)",Viability (SOD1^G93A) ([3]; concentration 10 nM),Rotarod test (motor function) [4],Body weight [5],ChAT-positive motor neuron count in spinal cord ([6]; 16W treated mice vs 16W control mice),"ChAT-positive motor neuron count in spinal cord ([6]; 19W and 22W treated mice vs 19W control mice, advanced stage)",Viability (TDP-43^A315T) ([2]; concentration 0.1 μM),Viability (SOD1^G93A) ([3]; concentration 0.1 μM)
"O=C(Nc1cccnn1)N1CCC(=Cc2cccc(Oc3ccc(C(F)(F)F)cn3)c2)CC1 [PF-04457845, N-pyridazin-3-yl-4-(3-{[5-(trifluoromethyl)pyridin-2-yl]oxy}benzylidene) piperidine-1-carboxamide]",increased,decreased,increased,activation of IL-13 signaling pathway,effect of prolonging the survival period was observed,effect of inhibiting the proliferation of microglia,highly effective in improving the cell viability,1.31,about 1.3 times,more effective in improving cell viability,effect of inhibiting the proliferation of astrocytes,highly effective in improving the cell viability,1.26,significant progression-inhibiting effect,no significant difference in body weight,effect of limiting the decrease in motor neuron count,effect of limiting the decrease in motor neuron count,,
"Nc1nc2ccc(OC(F)(F)F)cc2s1 [Riluzole, riluzole]",,,,,,,,,,,,,,,,,,1.03,1.00
